According to ChEMBL document CHEMBL3865818, “4,5-Diaryl-3H-1,2-dithiole-3-thiones and related compounds as combretastatin A-4/oltipraz hybrids: Synthesis, molecular modelling and evaluation as antiproliferative agents and inhibitors of tubulin” (Eur J Med Chem, 2016):
The source made the active and inactive calls. The calls are words filed in the database; no cut-off is given here.

Key:
[1] = Antiproliferative activity against human SGC7901 cells measured after 72 hrs by MTT assay; format: functional, cell-based; settings: SGC-7901, 72 h
[2] = Antiproliferative activity against human KB cells measured after 72 hrs by MTT assay; format: functional, cell-based
[3] = Antiproliferative activity against human HT1080 cells measured after 72 hrs by MTT assay; format: functional, cell-based; settings: HT-1080, 72 h
[4] = Antitumor activity against mouse SVR cells implanted in athymic nude mouse assessed as tumor growth inhibition at 250 mg/kg, po qd for 10 days measured on day 4 relative to control; settings: read-out: TGI
[5] = Inhibition of porcine brain tubulin polymerization measured after 60 mins by fluorescence analysis; set-up: species or system Sus scrofa
[6] = Cell cycle arrest in human KB cells assessed as accumulation at G2/M-phase at 0.2 uM measured up to 60 hrs by propidium iodide staining-based flow cytometry; format: functional
[7] = Cell cycle arrest in human KB cells assessed as accumulation at G2/M-phase up to 0.2 uM measured after 24 hrs by propidium iodide staining-based flow cytometry; format: functional

Compound `COc1ccc(-c2ssc(=O)c2-c2cc(OC)c(OC)c(OC)c2)cc1` has an IC50 [1] of 0.134 µM, an IC50 [2] of 0.324 µM and an IC50 [3] of 0.464 µM.
Work on `COc1ccc(-c2c(-c3cc(OC)c(OC)c(OC)c3)ssc2=O)cc1` yielded an IC50 [1] of over 100 µM, an IC50 [2] of over 100 µM and an IC50 [3] of over 100 µM.
With `COc1ccc(-c2ssc(=S)c2-c2cc(OC)c(OC)c(OC)c2)cc1[N+](=O)[O-]` the IC50 [1] was 13.6 µM, the IC50 [2] was over 100 µM and the IC50 [3] was 9.14 µM.
With `COc1ccc(-c2c(-c3cc(OC)c(OC)c(OC)c3)ssc2=S)cc1N` the IC50 [1] was 2.62 µM, the IC50 [2] was 2.17 µM and the IC50 [3] was 3 µM.
With `COc1ccc(-c2ssc(=S)c2-c2cc(OC)c(OC)c(OC)c2)cc1` the IC50 [1] was 21.1 µM, the IC50 [2] was 4.91 µM and the IC50 [3] was 18.6 µM.
Work on `Cc1c(-c2cnccn2)ssc1=S` [OLTIPRAZ] yielded an inhibition in vivo at 250 mg/kg [4] of 81%.
In the case of `COc1ccc(-c2ss/c(=N/O)c2-c2cc(OC)c(OC)c(OC)c2)cc1O`, the IC50 [1] is reported as 0.2 µM, the IC50 [2] is reported as 0.85 µM and the IC50 [3] is reported as 0.73 µM.
In the case of `COc1ccc(-c2ssc(=S)c2-c2cc(OC)c(OC)c(OC)c2)cc1O`, the IC50 [1] is reported as 0.271 µM, the IC50 [2] is reported as 0.435 µM and the IC50 [3] is reported as 0.231 µM.
`COc1ccc(-c2c(-c3cc(OC)c(OC)c(OC)c3)ssc2=O)cc1[N+](=O)[O-]` showed an IC50 [1] of over 100 µM, an IC50 [2] of over 100 µM and an IC50 [3] of over 100 µM.
Compound `COc1ccc(-c2ssc(=S)c2-c2cc(OC)c(OC)c(OC)c2)cc1N` has an IC50 [1] of 0.444 µM, an IC50 [2] of 0.327 µM and an IC50 [3] of 0.834 µM.
Work on `COc1ccc(/C=C\c2cc(OC)c(OC)c(OC)c2)cc1O` [COMBRETASTATIN A4] yielded an IC50 [1] of 0.026 µM, an IC50 [2] of 0.007 µM and an IC50 [3] of 0.01 µM. For the same compound, the IC50 [5] was 0.92 µM.
`COc1ccc(-c2c(-c3cc(OC)c(OC)c(OC)c3)ssc2=S)cc1[N+](=O)[O-]` showed an IC50 [1] of 44.7 µM, an IC50 [2] of 38.2 µM and an IC50 [3] of 3.55 µM.
In the case of `COc1ccc(-c2c(-c3cc(OC)c(OC)c(OC)c3)ss/c2=N/O)cc1N`, the IC50 [1] is reported as 2.91 µM, the IC50 [2] is reported as 2.91 µM and the IC50 [3] is reported as 2.91 µM.
Compound `CO/N=c1/ssc(-c2ccc(OC)c(O)c2)c1-c1cc(OC)c(OC)c(OC)c1` has an IC50 [1] of 10 µM, an IC50 [2] of 14.5 µM and an IC50 [3] of 4.6 µM.
Compound `CO/N=c1/ssc(-c2cc(OC)c(OC)c(OC)c2)c1-c1ccc(OC)c(N)c1` has an IC50 [1] of 1.96 µM, an IC50 [2] of 0.517 µM and an IC50 [3] of 0.915 µM.
`COc1ccc(-c2c(-c3cc(OC)c(OC)c(OC)c3)ss/c2=N/O)cc1[N+](=O)[O-]` showed an IC50 [1] of 6.56 µM, an IC50 [2] of 5.26 µM and an IC50 [3] of 3.03 µM.
Compound `COc1ccc(-c2c(-c3cc(OC)c(OC)c(OC)c3)ssc2=S)cc1` has an IC50 [1] of 2.35 µM, an IC50 [2] of 1.14 µM and an IC50 [3] of 2.27 µM.
Work on `COc1ccc(-c2ss/c(=N/O)c2-c2cc(OC)c(OC)c(OC)c2)cc1N` yielded an IC50 [1] of 4.3 µM, an IC50 [2] of 0.099 µM and an IC50 [3] of 9.36 µM. For the same compound, the IC50 [5] was 12.8 µM, the Activity [6] was “Active” and the Activity [7] was “Active”.
`COc1ccc(-c2ssc(=O)c2-c2cc(OC)c(OC)c(OC)c2)cc1[N+](=O)[O-]` showed an IC50 [1] of 0.44 µM, an IC50 [2] of 22.3 µM and an IC50 [3] of 4.22 µM.
Work on `CO/N=c1/ssc(-c2ccc(OC)c(N)c2)c1-c1cc(OC)c(OC)c(OC)c1` yielded an IC50 [1] of over 100 µM, an IC50 [2] of 4.33 µM and an IC50 [3] of 4.23 µM.
In the case of `COc1ccc(-c2c(-c3cc(OC)c(OC)c(OC)c3)ss/c2=N/O)cc1`, the IC50 [1] is reported as over 100 µM, the IC50 [2] is reported as over 100 µM and the IC50 [3] is reported as over 100 µM.
Compound `COc1ccc(-c2ssc(=O)c2-c2cc(OC)c(OC)c(OC)c2)cc1O` has an IC50 [1] of 3.11 µM, an IC50 [2] of 0.46 µM and an IC50 [3] of 1.91 µM. For the same compound, the IC50 [5] was 9.71 µM, the Activity [6] was “Active” and the Activity [7] was “Active”.
Compound `COc1ccc(-c2c(-c3cc(OC)c(OC)c(OC)c3)ssc2=O)cc1N` has an IC50 [1] of over 100 µM, an IC50 [2] of over 100 µM and an IC50 [3] of over 100 µM.
In the case of `COc1ccc(-c2ss/c(=N/O)c2-c2cc(OC)c(OC)c(OC)c2)cc1`, the IC50 [1] is reported as 17.4 µM, the IC50 [2] is reported as 13.7 µM and the IC50 [3] is reported as 6.66 µM.
Work on `CO/N=c1/ssc(-c2cc(OC)c(OC)c(OC)c2)c1-c1ccc(OC)c([N+](=O)[O-])c1` yielded an IC50 [1] of over 100 µM, an IC50 [2] of over 100 µM and an IC50 [3] of over 100 µM.
